Results as given in US12384797B2, “Thioeno[3,2-b] pyridin-7-amine compounds for treating familial dysautonomia” (PTC THERAPEUTICS, INC., priority 2019, dated 2025).

Tested on: Elongator complex protein 1 (ELP1, also referred to as IKBKAP)
Experiment: IKBKAP-HTRF assay (IKBKAP protein in lysates of FD patient-derived fibroblasts)
Format: cell-based, human
Settings: 48 hours incubation, 7-point concentration curve
In short: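 FD patient-derived fibroblasts (10,000/well) were treated 48 h at 37 °C with a 7-point, 3.16-fold compound series in triplicate, then lysed. IKBKAP was read by sandwich HTRF (donor/acceptor anti-IKAP antibodies, overnight at 4 °C, 665/620 nm). MFI is ΔF over vehicle ΔF; EC2x is the concentration giving twice the vehicle IKBKAP level.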

Row | Compound | EC2x for IKBKAP protein expression (concentration producing two times the amount of IKBKAP protein vs DMSO vehicle control) | MFI (maximum fold increase in IKBKAP protein abundance relative to the vehicle control)
1 | Cc1cc(NCc2nccs2)c2scc(Cl)c2n1 [Compound 10, 3-chloro-5-methyl-N-[(1,3-thiazol-2-yl)methyl]thieno[3,2-b]pyridin-7-amine] | * (An EC2x>1 μM is indicated by one star (*)) | * (An MFI≤1.9 is indicated by one star (*))
2 | C#C[C@H](N)Cc1sc2c(NCc3ccco3)cc(Cl)nc2c1C [Compound 123, 2-[(2R)-2-aminobut-3-yn-1-yl]-3-methyl-5-chloro-N-[(furan-2-yl)methyl]thieno[3,2-b]pyridin-7-amine] | ***** (≤0.005 μM is indicated by five stars (*****)) | ***** (>4.9 is indicated by five stars (*****))
3 | C[C@H](N)Cc1sc2c(NCc3cccs3)cc(Cl)nc2c1OC(F)F [Compound 139, 2-[(2S)-2-aminopropyl]-5-chloro-3-(difluoromethoxy)-N-[(thiophen-2-yl)methyl]thieno[3,2-b]pyridin-7-amine] | ***** (≤0.005 μM is indicated by five stars (*****)) | **** (between >3.9 and ≤4.9 is indicated by four stars (****))
4 | C[C@H](N)C(O)c1sc2c(NCc3nccs3)cc(Cl)nc2c1Br (stereo partly drawn) [Compound 159, (2S)-2-amino-1-(3-bromo-5-chloro-7-{[(1,3-thiazol-2-yl)methyl]amino}thieno[3,2-b]pyridin-2-yl)propan-1-ol] | *** (between >0.02 μM and ≤0.5 μM is indicated by three stars (***)) | ** (between >1.9 and ≤2.9 is indicated by two stars (**))
5 | C[C@H](N)Cc1sc2c(NCc3ccco3)cc(C#N)nc2c1Br [Compound 49, 2-[(2S)-2-aminopropyl]-3-bromo-7-{[(furan-2-yl)methyl]amino}thieno[3,2-b]pyridine-5-carbonitrile] | ***** (≤0.005 μM is indicated by five stars (*****)) | ***** (>4.9 is indicated by five stars (*****))
6 | Cc1c(C[C@@H](N)CCF)sc2c(NCc3nccs3)cc(Cl)nc12 [Compound 99, 2-[(2S)-2-amino-4-fluorobutyl]-5-chloro-3-methyl-N-[(1,3-thiazol-2-yl)methyl]thieno[3,2-b]pyridin-7-amine] | ***** (≤0.005 μM is indicated by five stars (*****)) | ***** (>4.9 is indicated by five stars (*****))
7 | Cc1ccc(NC(=O)[C@H](N)Cc2sc3c(NCc4ccco4)cc(Cl)nc3c2C)cc1 [Compound 142, 3-(5-chloro-7-{[(furan-2-yl)methyl]amino}-3-methylthieno[3,2-b]pyridin-2-yl)-N-(4-methylphenyl)-D-alaninamide] | **** (between >0.005 μM and ≤0.02 μM is indicated by four stars (****)) | ***** (>4.9 is indicated by five stars (*****))
8 | 2-[(2S)-2-aminobutyl]-5-chloro-3-cyclopropyl-N-[(1,3-thiazol-2-yl)methyl]thieno[3,2-b]pyridin-7-amine [Compound 86] | *** (between >0.02 μM and ≤0.5 μM is indicated by three stars (***)) | **** (between >3.9 and ≤4.9 is indicated by four stars (****))
9 | Cc1c(C[C@H](C)N)sc2c(NCc3nccs3)cc(Cl)nc12 [Compound 57, 2-[(2S)-2-aminopropyl]-5-chloro-3-methyl-N-[(1,3-thiazol-2-yl)methyl]thieno[3,2-b]pyridin-7-amine] | ***** (≤0.005 μM is indicated by five stars (*****)) | ***** (>4.9 is indicated by five stars (*****))
10 | C[C@H](N)Cc1sc2c(NCc3cccs3)cc(Cl)nc2c1Cl [Compound 52, 2-[(2S)-2-aminopropyl]-3,5-dichloro-N-[(thiophen-2-yl)methyl]thieno[3,2-b]pyridin-7-amine] | ***** (≤0.005 μM is indicated by five stars (*****)) | ***** (>4.9 is indicated by five stars (*****))
11 | CC(O)c1cc2nc(Cl)cc(NCc3ccco3)c2s1 (centres unmarked) [Compound 4, 1-(5-chloro-7-{[(furan-2-yl)methyl]amino}thieno[3,2-b]pyridin-2-yl)ethan-1-ol] | * (An EC2x>1 μM is indicated by one star (*)) | ** (between >1.9 and ≤2.9 is indicated by two stars (**))
12 | Cc1c(NC[C@@H](C)N)sc2c(NCc3cccs3)cc(Cl)nc12 [Compound 164, N^2-[(2R)-2-aminopropyl]-5-chloro-3-methyl-N^7-[(thiophen-2-yl)methyl]thieno[3,2-b]pyridine-2,7-diamine] | *** (between >0.02 μM and ≤0.5 μM is indicated by three stars (***)) | *** (between >2.9 and ≤3.9 is indicated by three stars (***))
13 | 2-[(2S)-2-amino-4-methylpentyl]-5-chloro-3-cyclopropyl-N-[(1,3-thiazol-2-yl)methyl]thieno[3,2-b]pyridin-7-amine [Compound 80] | *** (between >0.02 μM and ≤0.5 μM is indicated by three stars (***)) | *** (between >2.9 and ≤3.9 is indicated by three stars (***))
14 | Cc1c(C[C@@H](N)CS(C)(=O)=O)sc2c(NCc3ccco3)cc(Cl)nc12 [Compound 108, 2-[(2R)-2-amino-3-(methanesulfonyl)propyl]-5-chloro-N-[(furan-2-yl)methyl]-3-methylthieno[3,2-b]pyridin-7-amine] | **** (between >0.005 μM and ≤0.02 μM is indicated by four stars (****)) | ***** (>4.9 is indicated by five stars (*****))
15 | CC(C)C[C@H](N)Cc1sc2c(NCc3nccs3)cc(Cl)nc2c1Cl [Compound 79, 2-[(2S)-2-amino-4-methylpentyl]-3,5-dichloro-N-[(1,3-thiazol-2-yl)methyl]thieno[3,2-b]pyridin-7-amine] | ***** (≤0.005 μM is indicated by five stars (*****)) | ***** (>4.9 is indicated by five stars (*****))
16 | C#C[C@H](N)Cc1sc2c(NCc3ccco3)cc(Cl)nc2c1Cl [Compound 166, 2-[(2R)-2-aminobut-3-yn-1-yl]-3,5-dichloro-N-[(furan-2-yl)methyl]thieno[3,2-b]pyridin-7-amine] | ***** (≤0.005 μM is indicated by five stars (*****)) | **** (between >3.9 and ≤4.9 is indicated by four stars (****))
17 | CSC[C@H](N)Cc1sc2c(NCc3ccco3)cc(Cl)nc2c1Br [Compound 118, 2-[(2R)-2-amino-3-(methylsulfanyl)propyl]-3-bromo-5-chloro-N-[(furan-2-yl)methyl]thieno[3,2-b]pyridin-7-amine] | ***** (≤0.005 μM is indicated by five stars (*****)) | ***** (>4.9 is indicated by five stars (*****))
18 | COC[C@H](N)Cc1sc2c(NCc3ccco3)cc(Cl)nc2c1Cl [Compound 40, 2-[(2R)-2-amino-3-methoxypropyl]-3,5-dichloro-N-[(furan-2-yl)methyl]thieno[3,2-b]pyridin-7-amine] | ***** (≤0.005 μM is indicated by five stars (*****)) | ***** (>4.9 is indicated by five stars (*****))
19 | C[C@H](N)Cc1sc2c(NCc3nccs3)cc(Cl)nc2c1Cl [Compound 38, 2-[(2S)-2-aminopropyl]-3,5-dichloro-N-[(1,3-thiazol-2-yl)methyl]thieno[3,2-b]pyridin-7-amine] | ***** (≤0.005 μM is indicated by five stars (*****)) | ***** (>4.9 is indicated by five stars (*****))
20 | C[C@H](N)C(=O)c1sc2c(NCc3nccs3)cc(Cl)nc2c1Br [Compound 160, (2S)-2-amino-1-(3-bromo-5-chloro-7-{[(1,3-thiazol-2-yl)methyl]amino}thieno[3,2-b]pyridin-2-yl)propan-1-one] | *** (between >0.02 μM and ≤0.5 μM is indicated by three stars (***)) | **** (between >3.9 and ≤4.9 is indicated by four stars (****))
21 | N[C@@H](CCF)Cc1sc2c(NCc3ccco3)cc(Cl)nc2c1Br [Compound 97, 2-[(2S)-2-amino-4-fluorobutyl]-3-bromo-5-chloro-N-[(furan-2-yl)methyl]thieno[3,2-b]pyridin-7-amine] | ***** (≤0.005 μM is indicated by five stars (*****)) | ***** (>4.9 is indicated by five stars (*****))
22 | N[C@H](Cc1sc2c(NCc3ccco3)cc(Cl)nc2c1Cl)C(=O)O [Compound 121, 3-(3,5-dichloro-7-{[(furan-2-yl)methyl]amino}thieno[3,2-b]pyridin-2-yl)-D-alanine] | **** (between >0.005 μM and ≤0.02 μM is indicated by four stars (****)) | **** (between >3.9 and ≤4.9 is indicated by four stars (****))
